# Literature values in patent US20080286344A1, “Solid form” (priority 2007, published 2008).
compound,measurement,setting,value
Cn1c(=O)c2[nH]cnc2n(C)c1=O [theophylline],"Solubility in water, g of water for 1 g",1 g active in stated g of water,100-1000 g water
same,Solubility in water (descriptive term),water,slightly soluble
